{"source": "patent US20250188075A1", "about": "“SUBSTITUTED HETEROCYCLIC CSNK1 INHIBITORS” (The Broad Institute, Inc., priority 2022, published 2025)", "key": {"HT-29 cells": {"system": "HT-29 cells", "test": "HT29 cell proliferation assay, CTG method", "format": "cell-based", "conditions": "HT-29, CTG, 96 h, median, read-out: 2D-PROLI HT-29 CTG 96 h, IC50 - [mol/l] (median)", "protocol": "CELL PROLIFERATION ASSAY CTG METHOD, 384-well version: Day 1: plated 400 cells/30 μL/well in growth medium (DMEM/Ham's F12; (Biochrom; #FG 4815, mit stabilem Glutamin)+FCS (final: 10%); (Biochrom; #S 0415)) in 384-well black plates (Corning #3571). Plated sister wells in a separate plate for time zero determination. Incubated all plates overnight at 37° C. Day 2: added test compounds in serial dilutions using the HP D300 Digital Dispenser and incubated at 37° C. for 96 h. Measured time zero plate: add 30 μL/well CTG solution (Promega CellTiter-Glo solution (catalog #G7573)) to wells in time zero plate; incubated for 2 minutes in a orbital shaker to induce cell lysis; allowed the plate to incubate at room temperature for additional 10 min to stabilize luminescent signal and read luminescence on PheraStar (rapid mode—0.02 sec/well; GAIN 3000). Day 6: Added 30 μL/well CTG solution to all test wells, incubated for 2 minutes in a orbital shaker to induce cell lysis; allowed the plate to incubate at room temperature for additional 10 min to stabilize luminescent signal and read luminescence on PheraStar (rapid mode—0.02 sec/well; GAIN 3000 Proliferation IC50s were calculated using the DRC application in ShiNy Analysis Platform-SNAP.”"}, "total-p53 in MCF-7 cells": {"system": "total-p53 in MCF-7 cells", "test": "HTRF total-p53 in MCF-7 cells", "format": "cell-based", "conditions": "median, read-out: HTRF total-p53 MCF-7, IC50 - [mol/l] (median)", "protocol": "Day 1: MCF-7 cells were seeded (10,000 cells in 12 μl/well) in a 384-well-Small Volume-plate (Greiner Bio One #784075) in culture medium (RPMI 1640; (Biochrom; #F 1275; without PhenolRed)+FCS (final: 10%); (Biochrom; #S 0415)+Insulin (bovine); (final: 10 μg/mL, Biochrom; #K 3510)+L-Alanyl-L-Glutamine; (final: 2 mM, Biochrom; #K 0302)+Natriumpyruvat; (final: 1 mM, Biochrom; #L 0473)+Non Essentiell Amino Acids; (final: 1×, Biochrom; #K 0293)). The cells were then treated with different compounds or DMSO (added with the HP Dispenser) and incubated for 2 h at 37° C. Following incubation, the cells were lysed in 4 μl of lysis buffer for 1 h shaking at RT. Finally, 4 μl of antibody solution was added and the samples are incubated overnight at RT, shaking.\nTotal-p53 was detected in a sandwich assay format using 2 different specific antibodies, one labeled with Eu3+-Cryptate (donor) and the second with d2 (acceptor). Kit: HTRF total p53 detection assay (Cisbio Cat: 64T53PEG).\nDay 2: the plate was read on PHERAstar FS (BMG Labtech settings; optic module: HTRF; integration start: 60 us; integration time: 400 μs; flash lamp). IC50 values were calculated using the DRC application in ShiNy Analysis Platform-SNAP.”"}, "human CSNK1A1": {"biological_target": "human CSNK1A1 (Homo sapiens (Human), UniProt P48729)", "sequence (P48729 whole entry)": "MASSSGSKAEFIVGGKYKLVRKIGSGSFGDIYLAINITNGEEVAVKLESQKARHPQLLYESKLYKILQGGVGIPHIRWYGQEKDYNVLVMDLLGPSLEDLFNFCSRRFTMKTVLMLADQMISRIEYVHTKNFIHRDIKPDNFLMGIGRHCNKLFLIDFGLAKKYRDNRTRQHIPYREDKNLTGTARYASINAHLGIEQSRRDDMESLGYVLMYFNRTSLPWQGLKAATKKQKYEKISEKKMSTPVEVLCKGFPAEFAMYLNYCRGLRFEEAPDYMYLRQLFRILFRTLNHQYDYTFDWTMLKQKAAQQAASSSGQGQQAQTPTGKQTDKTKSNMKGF", "test": "CSNK1A1 high ATP assay (ADP-Glo, 1 mM ATP)", "format": "biochemical", "conditions": "median, read-out: CSNK1A1 High ATP assay IC50 [mol/l] (median)", "protocol": "CSNK1A1-inhibitory activity of compounds of the present invention in presence of 1 mM adenosine-tri-phosphate (ATP) was quantified employing the CSNK1A1-high-ATP-assay as described in the following paragraphs. In essence, the enzyme activity is measured by quantification of the adenosine-di-phosphate (ADP), which is generated as a co-product of the enzyme reaction, via the “ADP-Glo™ Kinase Assay” kit from the company Promega. This detection system works as follows: In a first step the ATP not consumed in the kinase reaction is quantitatively converted to CAMP employing an adenylate cyclase (“ADP-Glo-reagent”), then the adenylate cyclase is stopped and the ADP generated in the kinase reaction converted to ATP which generates in a luciferase-based reaction a glow-luminescence signal (“Kinase Detection Reagent”).\nRecombinant fusion protein of N-terminal Glutathion-S-Transferase (GST) and full-length human CSNK1A1, expressed by baculovirus infected insect cells and purified via Glutathion affinity chromatography, was purchased from Life Technologies (product no. PV4174) and used as enzyme. As substrate for the kinase reaction the biotinylated peptide biotin-Ahx-KRRRAL-pS-VASLPGL (C-terminus in amide form) was used which can be purchased e.g. from the company Biosyntan (Berlin-Buch, Germany).\nFor the assay 50 nl of a 100 fold concentrated solution of the test compound in DMSO was pipetted into a white low volume 384-well microtiter plate (Greiner Bio-One, Frickenhausen, Germany), 2 μL of a solution of CSNK1A1 in aqueous assay buffer [50 mM HEPES pH 7.5, 10% (v/v) glycerol, 10 mM MgCl2, 50 mM NaCl, 1 mM dithiothreitol, 0.01% (w/v) bovine serum albumin, 0.01% (v/v) Triton X-100] were added and the mixture was incubated for 15 min at 22° C. to allow pre-binding of the test compounds to the enzyme before the start of the kinase reaction. Then the kinase reaction was started by the addition of 3 μL of a solution of ATP (1.67 mM=>final conc. in the 5 μL assay volume is 1 mM) and peptide substrate (167 μM=>final conc. in the 5 μL assay volume is 100 μM) in assay buffer and the resulting mixture was incubated for a reaction time of 30 min at 22° C. The concentration of CSNK1A1 was adjusted depending of the activity of the enzyme lot and was chosen appropriate to have the assay in the linear range, a typical concentration is about 0.4 ng/μL. The reaction was stopped by the addition of 2.5 μL of “ADP-Glo-reagent” (1:1.5 fold diluted with water) and the resulting mixture was incubated at 22° C. for 1 h to convert the ATP not consumed in the kinase reaction completely to CAMP. Subsequently 2.5 μL of the “kinase detection reagent” (1.2 fold more concentrated than recommended by the producer) were added, the resulting mixture was incubated at 22° C. for 1 h and then the luminescence measured with a suitable measurement instrument (e.g. Viewlux™ from Perkin-Elmer). The amount of emitted light was taken as a measure for the amount of ADP generated and thereby for the activity of the CSNK1A1.\nThe data were normalised (enzyme reaction without inhibitor=0% inhibition, all other assay components but no enzyme=100% inhibition)."}, "[1]": {"conditions": "Homo sapiens, MCF7, 2 h incubation"}}, "note": "Read-outs that look alike come from different tables or passages of the source."}
{"smiles": "Cc1nc(C)c(CC(=O)Nc2cc(-c3[nH]c4cccnc4c3-c3ccccn3)ccn2)s1", "note": "[Example 18, 2-(2,4-dimethylthiazol-5-yl)-N-[4-[3-(2-pyridyl)-^1H-pyrrolo[3,2-b]pyridin-2-yl]-2-pyridyl]acetamide]", "values": [{"measurement": "IC50", "setting": "HT-29 cells; Homo sapiens", "result": 220, "unit": "nM"}, {"measurement": "IC50", "setting": "total-p53 in MCF-7 cells; [1]", "result": 56.6, "unit": "nM"}, {"measurement": "IC50", "setting": "human CSNK1A1", "result": 14.1, "unit": "nM"}]}
{"smiles": "Cn1cc(C(CC(F)F)C(=O)Nc2cc(-c3[nH]c4cccnc4c3-c3ccccn3)ccn2)cn1", "note": "(stereo not drawn) [Example 19, 4,4-difluoro-2-(1-methylpyrazol-4-yl)-N-[4-[3-(2-pyridyl)-^1H-pyrrolo[3,2-b]pyridin-2-yl]-2-pyridyl]butanamide]", "values": [{"measurement": "IC50", "setting": "HT-29 cells; Homo sapiens", "result": 1240, "unit": "nM"}, {"measurement": "IC50", "setting": "total-p53 in MCF-7 cells; [1]", "result": 407, "unit": "nM"}, {"measurement": "IC50", "setting": "human CSNK1A1", "result": 291, "unit": "nM"}]}
{"smiles": "O=C(Cc1ccn(CC(F)(F)F)n1)Nc1cc(-c2[nH]c3cccnc3c2-c2ccccn2)ccn1", "note": "[Example 20, N-[4-[3-(2-pyridyl)-^1H-pyrrolo[3,2-b]pyridin-2-yl]-2-pyridyl]-2-[1-(2,2,2-trifluoroethyl)pyrazol-3-yl]acetamide]", "values": [{"measurement": "IC50", "setting": "HT-29 cells; Homo sapiens", "result": 341, "unit": "nM"}, {"measurement": "IC50", "setting": "total-p53 in MCF-7 cells; [1]", "result": 184, "unit": "nM"}, {"measurement": "IC50", "setting": "human CSNK1A1", "result": 98.7, "unit": "nM"}]}
{"smiles": "Cn1nc(CC(=O)Nc2cc(-c3[nH]c4cccnc4c3-c3ccccn3)ccn2)cc1C(F)(F)F", "note": "[Example 21, 2-[1-methyl-5-(trifluoromethyl)pyrazol-3-yl]-N-[4-[3-(2-pyridyl)-^1H-pyrrolo[3,2-b]pyridin-2-yl]-2-pyridyl]acetamide]", "values": [{"measurement": "IC50", "setting": "HT-29 cells; Homo sapiens", "result": 222, "unit": "nM"}, {"measurement": "IC50", "setting": "total-p53 in MCF-7 cells; [1]", "result": 96.9, "unit": "nM"}, {"measurement": "IC50", "setting": "human CSNK1A1", "result": 86.6, "unit": "nM"}]}
{"smiles": "O=C(Cc1ccns1)Nc1cc(-c2[nH]c3cccnc3c2-c2ccccn2)ccn1", "note": "[Example 22, 2-isothiazol-5-yl-N-[4-[3-(2-pyridyl)-^1H-pyrrolo[3,2-b]pyridin-2-yl]-2-pyridyl]acetamide]", "values": [{"measurement": "IC50", "setting": "HT-29 cells; Homo sapiens", "result": 337, "unit": "nM"}, {"measurement": "IC50", "setting": "total-p53 in MCF-7 cells; [1]", "result": 119, "unit": "nM"}, {"measurement": "IC50", "setting": "human CSNK1A1", "result": 41.2, "unit": "nM"}]}
{"smiles": "O=C(Cc1ccno1)Nc1cc(-c2[nH]c3cccnc3c2-c2ccccn2)ccn1", "note": "[Example 23, 2-isoxazol-5-yl-N-[4-[3-(2-pyridyl)-^1H-pyrrolo[3,2-b]pyridin-2-yl]-2-pyridyl]acetamide]", "values": [{"measurement": "IC50", "setting": "HT-29 cells; Homo sapiens", "result": 768, "unit": "nM"}, {"measurement": "IC50", "setting": "total-p53 in MCF-7 cells; [1]", "result": 120, "unit": "nM"}, {"measurement": "IC50", "setting": "human CSNK1A1", "result": 50.1, "unit": "nM"}]}
{"smiles": "Cc1cc(CC(=O)Nc2cc(-c3[nH]c4cccnc4c3-c3ccccn3)ccn2)no1", "note": "[Example 26, 2-(5-methylisoxazol-3-yl)-N-[4-[3-(2-pyridyl)-^1H-pyrrolo[3,2-b]pyridin-2-yl]-2-pyridyl]acetamide]", "values": [{"measurement": "IC50", "setting": "HT-29 cells; Homo sapiens", "result": 466, "unit": "nM"}, {"measurement": "IC50", "setting": "total-p53 in MCF-7 cells; [1]", "result": 176, "unit": "nM"}, {"measurement": "IC50", "setting": "human CSNK1A1", "result": 90.8, "unit": "nM"}]}
{"smiles": "O=C(Cc1cc(C2CC2)on1)Nc1cc(-c2[nH]c3cccnc3c2-c2ccccn2)ccn1", "note": "[Example 27, 2-(5-cyclopropylisoxazol-3-yl)-N-[4-[3-(2-pyridyl)-^1H-pyrrolo[3,2-b]pyridin-2-yl]-2-pyridyl]acetamide]", "values": [{"measurement": "IC50", "setting": "HT-29 cells; Homo sapiens", "result": 338, "unit": "nM"}, {"measurement": "IC50", "setting": "total-p53 in MCF-7 cells; [1]", "result": 169, "unit": "nM"}, {"measurement": "IC50", "setting": "human CSNK1A1", "result": 244, "unit": "nM"}]}
{"smiles": "Cn1nc(CC(=O)Nc2cc(-c3[nH]c4cccnc4c3-c3ccccn3)ccn2)cc1C1CC1", "note": "[Example 29, 2-(5-cyclopropyl-1-methyl-pyrazol-3-yl)-N-[4-[3-(2-pyridyl)-^1H-pyrrolo[3,2-b]pyridin-2-yl]-2-pyridyl]acetamide]", "values": [{"measurement": "IC50", "setting": "HT-29 cells; Homo sapiens", "result": 340, "unit": "nM"}, {"measurement": "IC50", "setting": "total-p53 in MCF-7 cells; [1]", "result": 199, "unit": "nM"}, {"measurement": "IC50", "setting": "human CSNK1A1", "result": 188, "unit": "nM"}]}
{"smiles": "O=C(Nc1cc(-c2[nH]c3nccnc3c2-c2ccccn2)ccn1)[C@@H](CC(F)F)c1ccc(F)cc1", "note": "[Example C1, reference compound]", "values": [{"measurement": "IC50", "setting": "HT-29 cells", "result": 206, "unit": "nM"}, {"measurement": "IC50", "setting": "total-p53 in MCF-7 cells; 2 h incubation", "result": 72.8, "unit": "nM"}, {"measurement": "IC50", "setting": "human CSNK1A1", "result": 20.1, "unit": "nM"}]}
{"smiles": "O=C(Nc1cc(-c2[nH]c3ccc(F)nc3c2-c2ccccn2)ccn1)[C@@H](CC(F)F)c1ccc(F)cc1", "note": "[Example C2, reference compound]", "values": [{"measurement": "IC50", "setting": "HT-29 cells", "result": 88.8, "unit": "nM"}, {"measurement": "IC50", "setting": "total-p53 in MCF-7 cells; 2 h incubation", "result": 72.4, "unit": "nM"}, {"measurement": "IC50", "setting": "human CSNK1A1", "result": 5.27, "unit": "nM"}]}
{"smiles": "O=C(Nc1cc(-c2[nH]c3c(OCC(F)F)ncnc3c2-c2ccccn2)ccn1)[C@@H](CC(F)F)c1ccc(F)cc1", "note": "[Example C3, reference compound]", "values": [{"measurement": "IC50", "setting": "HT-29 cells", "result": 110, "unit": "nM"}, {"measurement": "IC50", "setting": "total-p53 in MCF-7 cells; 2 h incubation", "result": 97.9, "unit": "nM"}, {"measurement": "IC50", "setting": "human CSNK1A1", "result": 8.84, "unit": "nM"}]}
